Assay results published in patent US20220380443A1, “TARGETING NAPA-LINKED PEP[…] TREATING LYME DISEASE” (priority 2021, published 2022).

What was measured:
dHL-60 cells = experiment: dHL-60 cell (neutrophil) migration in microfluidic competitive chemotaxis-chip (μC3); assay type: cell-based, Human; conditions: 125 μg/mL PG sample, 10 nM fMLP, 100 nM LTB4, 5 hours; for Percentage of Cells Migrated toward stimulus: mean±SD of three biological replicates
Text: Fresh, mixed donor human peripheral blood mononuclear cells (PBMCs) (Zen-Bio) were re-suspended in PBMC media (Zen-Bio) overnight prior to stimulations. Human NOD2 reporter cells, which were used to detect PG in OMVs (see below), were purchased from Invi-vogen and cultured as recommended by the manufacturer. Human promyelocytic leukemia cells (HL-60 CCL-240, American Type Culture Collection ATCC, Manassas, Va.) were cul-tured in complete media comprising of Iscove's Modified Dulbecco's Medium (IMDM, ATCC, Manassas, Va.) supplemented with 10% fetal bovine serum (FBS, ATCC, Manassas, Va.) at 37° C. in 5% CO2, according to ATCC instructions. HL-60 cells were differentiated into a neutrophil-like state with 1.5% dimethyl sulfoxide (DMSO, Sigma-Aldrich, St. Louis, Mo.) to 1.5×10^5 cells/mL for five days. Differentiated HL-60 cells (dHL-60 cells) were stained with Hoechst solution [20 mM] for 10 minutes (Thermo Fisher Scientific, Waltham, Mass.) at 37° C. and 5% CO2 and spun down and re-suspended into a concentration of 5.0×10^7 cells/mL immediately before use in the migration assay.
The microfluidic competitive chemotaxis-chip (μC3) was used to perform each migration assay. This device allowed for the creation of a dual gradient through two opposing chemoattractant reservoirs. The central cell-loading chamber is connected to the two reservoirs by perpendicular cell migration ladders (measured 10 μm wide×10 μm tall). Device fabrication was as previously. Briefly, two layers of photoresist (SUB, MicroChem), the first one 10 μm thin (corresponding to the migration channels) and the second one 70 μm thick (corresponding to the neutrophil loading chamber) were patterned on one silicon wafer sequentially using two photolithographic masks and processing cycles according to the instructions from the manufacturer. The wafer with patterned photoresist was used as a mold to produce polydimethylsiloxane (PDMS) (Sylgard 184, Elsworth Adhesives, Wilmington, Mass.) devices, which were then bonded to the base of glass-bottom 6-well plates (MatTek Corp., Ashland, Mass.), using an oxygen plasma machine (Nordson March, Concord, Calif.). Prior to each migration assay, the device was primed with fibronectin (Sigma-Aldrich, St. Louis, Mo.) (11 μg/mL). After priming with fibronectin, each device was covered in 4 mL complete media. […]
Each assay was visualized on a fully automated Nikon TiE microscope using a Plan Fluor 10×Ph1 DLL (NA=0.3) lens with a biochamber heated to 37° C. with 5% CO2. […] Image analysis of cell migration counts was analyzed automatically using ImageJ Cell tracking was conducted using an automated tracker, TrackMate (custom tracking and analysis codes are available for download at https://github.com/boribong/Single-Cell-Migration-Tracking) and ImageJ software (NIH). […]

[1] = test system: B. burgdorferi 5A11 and 5A11/napA; experiment: Lysozyme and NaCl stress tests (microtiter growth, colony forming units); assay type: cell-based, Borrelia burgdorferi; conditions: microtiter plate, end-point after 6 days, FIG. 7A
Description: Initial studies geared towards understanding both permissive and restrictive growth conditions upon stress were performed in microplates with serial dilutions. Each strain was cultured to ˜1×10^6 cells/mL and subsequently back diluted to a final concentration of 1×10^4 cells/mL in fresh B SKIT containing cell-wall stress. Lysozyme and NaCl were serially diluted 1:1. The final concentration of Lysozyme ranged from 2 mg/mL to 0 mg/mL, while NaCl varied from 500 nM to 7.8 mM. […] Both microtiter plates contained 4 wells of uninoculated media, which served as a negative control. These 96 well plates were allowed to incubate at 37° C. under 5% CO2 for 6 days. Afterwards, they were placed at ambient conditions for 2 hours before being imaged.
Parental and NapA mutant bacteria were cultured to ˜6.5×10^6 cells/mL and back diluted to a final starting concentration of 10^6 cells/mL. Each culture was stressed with Lysozyme (0.37 mg/mL) or NaCl (0.111 M) for 24 hours without additional antibiotic selection. Afterwards, each culture was plated using standard methods [92] and cultured at 37° C. under 5% CO2.

Compound	dHL-60 Cell Velocity, cells migrating toward stimulus (dHL-60 cells)	Percentage of Cells Migrated toward stimulus (dHL-60 cells)	resistance of wild-type cells to NaCl-induced stress versus 5A11/napA ([1]; NaCl 7.8 to 500 mM)	less enzyme needed to ablate 5A11/napA growth than wild-type bacteria ([1]; Lysozyme 0 to 2 mg/mL)
CCCCC/C=C\C[C@@H](O)/C=C/C=C/C=C\[C@@H](O)CCCC(=O)O [LTB4, Leukotriene B4]	7.04±4.90 μm/min	25.89±3.52%		
[Cl-].[Na+] [NaCl]			more than 8 times	
Formylmethionine-leucyl-phenylalanine [fMLP]	6.93±4.40 μm/min	35.94±5.42%		
Lysozyme				5-6 times
